Laboratory results: ChEMBL document CHEMBL3727357, “Compositions and methods for inhibiting g protein signaling” (2010)
pIC50: −log10 of the molar value. Activity calls are given as the source filed them. The rule behind the calls is not given here.

Assays:
[1] = target: Guanine nucleotide-binding protein G(I)/G(S)/G(T) subunit beta-1/gamma-2 (Homo sapiens, UniProt P59768+P62873); assay: (§1) Inhibition of SIGKAFKILGYPDYD binding to biotinylated Gbeta1gamma2 (unknown origin) incubated for 1 hr by phage ELISA; type: protein-complex assay
[2] = target: T1, Guanine nucleotide-binding protein G(I)/G(S)/G(T) subunit beta-1/gamma-2 (Homo sapiens, UniProt P62873+P59768); assay: Inhibition of biotinylated Gbeta1gamma2 (unknown origin) binding to PLCbeta2 at 1 uM incubated for 16 hrs; type: protein-complex assay
[3] = target: T1, Guanine nucleotide-binding protein G(I)/G(S)/G(T) subunit beta-1/gamma-2; assay: Inhibition of biotinylated Gbeta1gamma2 (unknown origin) binding to PLCbeta3 at 1 uM incubated for 16 hrs; type: protein-complex assay
HL-60 [4] = assay: Binding affinity to Gbetagamma in human HL60 cells assessed as inhibition of fMLP-stimulated GRK2 translocation at 10 uM incubated for 5 mins prior to fMLP stimulation by Western blot analysis; type: cell-based
HL-60 [5] = assay: Effect on fMLP-stimulated ERK1/2 phosphorylation in human HL60 cells at 10 uM incubated for 5 mins prior to fMLP stimulation by Western blot analysis; type: functional, cell-based
[6] = target: Mu-type opioid receptor (Homo sapiens) (UniProt P35372); assay: Inhibition of human Gbetagamma-dependent mu opioid receptor-mediated PLC activation expressed in CHO cells assessed as reduction of DAMGO-mediated total inositol phosphate production at 10 uM after 30 mins by scintillation counting analysis in presence of [3H]inositol; type: functional, cell-based
[7] = target: Mu-type opioid receptor (Homo sapiens) (UniProt P35372); assay: Inhibition of human Gbetagamma-dependent mu opioid receptor-mediated PLC activation expressed in CHO cells assessed as reduction of morphine-mediated total inositol phosphate production at 10 uM after 30 mins by scintillation counting analysis in presence of [3H]inositol; type: functional, cell-based
HL-60 [8] = assay: Binding affinity to Gbetagamma in differentiated human HL60 cells assessed as inhibition of fMLP-stimulated Rac1 activation at 10 uM preincubated for 10 mins followed by fMLP challenge for 90 secs by Western blot analysis; type: cell-based
HL-60 [9] = assay: Antiinflammatory activity in differentiated human HL60 cells assessed as inhibition of fMLP-stimulated cell migration at 10 uM after 1 hr by Boyden chamber method; type: functional, cell-based
Mus musculus [10] = species on record: Mus musculus; assay: Inhibition of Gbetagamma-GRK2 interaction in mouse cardiomyocytes assessed as increase in contractility; type: cell-based
Mus musculus [11] = species on record: Mus musculus; assay: Inhibition of Gbetagamma-GRK2 interaction in mouse cardiomyocytes assessed as increase in isoproterenol-induced contractility; type: cell-based
HL-60 [12] = assay: Binding affinity to Gbetagamma in human HL60 cells assessed as inhibition of fMLP-stimulated Ca2+ release at 10 uM incubated for 5 mins prior to fMLP stimulation by Fura2-AM dye-based assay; type: cell-based
HL-60 [13] = assay: Binding affinity to Gbetagamma in human HL60 cells assessed as inhibition of fMLP-stimulated GFP-PHAkt translocation to plasma membrane at 10 uM incubated for 5 mins prior to fMLP stimulation by Western blot analysis; type: cell-based
CHO = assay: Inhibition of human Gbetagamma-dependent kappa opioid receptor-mediated PLC activation expressed in CHO cells assessed as reduction of U50,488-mediated total inositol phosphate production at 10 uM after 30 mins by scintillation counting analysis in presence of [3H]inositol; type: cell-based
[14] = target: T1, Guanine nucleotide-binding protein G(I)/G(S)/G(T) subunit beta-1/gamma-2; assay: as §1; type: protein-complex assay
[15] = target: T1, Guanine nucleotide-binding protein G(I)/G(S)/G(T) subunit beta-1/gamma-2; assay: Inhibition of SIGKAFKILGYPDYD binding to biotinylated Gbeta1gamma2 (unknown origin) at 300 uM incubated for 1 hr by phage ELISA; type: protein-complex assay

T1 sequence (P59768 2-71 partner limits assumed): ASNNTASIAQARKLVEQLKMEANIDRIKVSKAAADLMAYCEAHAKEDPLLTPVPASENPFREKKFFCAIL
T1 sequence (P62873 2-340 limits assumed): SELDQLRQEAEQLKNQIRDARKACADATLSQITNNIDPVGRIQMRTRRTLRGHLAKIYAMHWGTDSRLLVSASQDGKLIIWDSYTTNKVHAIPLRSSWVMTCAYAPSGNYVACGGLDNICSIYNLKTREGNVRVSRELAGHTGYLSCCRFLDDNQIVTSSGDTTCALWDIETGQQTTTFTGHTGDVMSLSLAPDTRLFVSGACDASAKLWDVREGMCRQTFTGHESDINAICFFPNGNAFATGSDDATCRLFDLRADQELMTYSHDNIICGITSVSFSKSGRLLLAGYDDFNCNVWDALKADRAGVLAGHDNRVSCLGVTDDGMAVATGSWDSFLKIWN
Sequence of Guanine nucleotide-binding protein G(I)/G(S)/G(T) subunit beta-1/gamma-2 (Homo sapiens, UniProt P59768+P62873) (P59768 2-71 partner limits assumed): as the sequence (P59768 2-71 partner limits assumed) above
Sequence of Guanine nucleotide-binding protein G(I)/G(S)/G(T) subunit beta-1/gamma-2 (Homo sapiens, UniProt P59768+P62873) (P62873 2-340 limits assumed): as the sequence (P62873 2-340 limits assumed) above
Sequence of Mu-type opioid receptor (Homo sapiens) (P35372 whole entry): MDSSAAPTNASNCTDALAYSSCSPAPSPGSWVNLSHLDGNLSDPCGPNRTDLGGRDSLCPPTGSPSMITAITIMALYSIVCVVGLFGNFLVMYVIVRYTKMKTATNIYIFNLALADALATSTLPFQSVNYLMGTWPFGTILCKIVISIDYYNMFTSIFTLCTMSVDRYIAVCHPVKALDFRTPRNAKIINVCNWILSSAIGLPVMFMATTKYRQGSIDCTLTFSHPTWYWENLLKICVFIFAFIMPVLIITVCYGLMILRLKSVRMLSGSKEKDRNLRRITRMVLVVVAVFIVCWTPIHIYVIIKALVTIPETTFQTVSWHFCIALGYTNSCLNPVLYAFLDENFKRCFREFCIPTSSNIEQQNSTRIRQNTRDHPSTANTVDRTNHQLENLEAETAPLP

O=C(O)c1cccc2cccc(-c3c4ccc(=O)c(O)c-4oc4c(O)c(O)ccc34)c12
pIC50 [1]: 6.89

CC1C2C=CC1C(c1c3ccc(=O)cc-3oc3cc(O)ccc13)C2C(=O)O (stereo not drawn)
pIC50 [1]: 4.85

COc1cc2c(c(OC)c1OC)-c1ccc(O)c(=O)cc1C(N)CC2 (stereo not drawn)
inhibition [2]: inactive
inhibition [3]: inactive
inhibition (HL-60 [4]): Active
Activity (HL-60 [5]): inactive

COC(=O)/C=C/C(=O)N[C@@H]1CC[C@@]2(O)[C@H]3Cc4ccc(O)c5c4[C@@]2(CCN3CC2CC2)[C@H]1O5
inhibition [6]: Active
inhibition [7]: Active

O=C(O)C1CCCCC1c1c2ccc(=O)cc-2oc2cc(O)ccc12 (stereo not drawn)
inhibition (HL-60 [8]): inactive
inhibition (HL-60 [9]): inactive
inhibition (Mus musculus [10]): inactive
inhibition (Mus musculus [11]): inactive

O=C(O)C1CC23C(Cl)C(Cl)C(Cl)C(Cl)C2(CC1c1c2ccc(=O)c(O)c-2oc2c(O)c(O)ccc12)C3(Cl)Cl (stereo not drawn)
inhibition (HL-60 [12]): Active
inhibition (HL-60 [13]): Active
Activity (HL-60 [5]): inactive

Oc1ccc2c3c1O[C@H]1c4[nH]c5c(c4C[C@@]4(O)[C@@H](C2)N(CC2CC2)CC[C@]314)C[C@@]1(O)[C@H]2Cc3ccc(O)c4c3[C@@]1(CCN2CC1CC1)[C@H]5O4
inhibition (CHO): inactive

Cc1c2ccc(=O)cc-2oc2cc(O)ccc12
inhibition [14]: inactive
inhibition [15]: inactive
